Reference: US20240300958A1, “COMPOUNDS AND THE USES AND PHARMACEUTICAL COMPOSITIONS THEREOF” (BEIJING YOUZHUJU NETWORK TECHNOLOGY CO. LTD., priority 2023, published 2024)
Read-outs that look alike come from different tables or passages of the source.

Columns and labels:
Assay in all cases: Kinase inhibition profile (HTRF / ADP Glo kinase assay)
Type in all cases: biochemical
CK2α1/β = CK2α1/β (Homo sapiens (Human), UniProt P68400)
Method: (§1) HTRF kinase assay: 2×ATP and substrate solution as well as 2× kinase and metal solution were prepared with assay buffer. 25 nL of compound was transferred to 384-well assay plate by Echo 655. After centrifugation, 2.5 μL of 2× kinase/metal ion solution was added to the 384-well assay plate followed by incubation at 25° C. for 10 min. 2.5 μL of 2× substrate and ATP solution was added to the wells followed by incubation at 25° C. for 60 min. 2× XL665 and antibody solution was prepared with assay buffer. 5 μL of kinase detection reagent was added to the wells followed by incubation at 25° C. for 60 min. Fluorescence signals at 620 nm (Cryptate) and 665 nm (XL665) were read with a microtiter plate reader. ADP Glo kinase assay: 2×ATP and substrate solution as well as 2× kinase and metal solution were prepared with assay buffer. 20 nL of compound was transferred to 384-well assay plate by Echo 655. 2 μL of 2× kinase/metal ion solution was added followed by incubation at 25° C. for 10 min in the 384-well assay plate. 2 μL of 2× substrate and ATP solution was added to the wells followed by incubation at 25° C. for 60 min. 4 μL of ADP Glo reagent was added to the wells followed by incubation at 25° C. for 40 min. 8 μL of kinase test reagent was added to the wells followed by incubation at 25° C. for 40 min. The luminescence signals were recorded on a microtiter plate reader. Data analysis: the reaction control (0.5% DMSO) reading was set to 0% inhibition, and the background (10 μM positive control) reading was set to 100% inhibition, then the percent inhibition for each test solution was calculated and the results are shown in Table 2 and FIG. 3.

GSK3β = GSK3β (Homo sapiens (Human), UniProt P49841)
Sequence of GSK3β (P49841 whole entry, species assumed): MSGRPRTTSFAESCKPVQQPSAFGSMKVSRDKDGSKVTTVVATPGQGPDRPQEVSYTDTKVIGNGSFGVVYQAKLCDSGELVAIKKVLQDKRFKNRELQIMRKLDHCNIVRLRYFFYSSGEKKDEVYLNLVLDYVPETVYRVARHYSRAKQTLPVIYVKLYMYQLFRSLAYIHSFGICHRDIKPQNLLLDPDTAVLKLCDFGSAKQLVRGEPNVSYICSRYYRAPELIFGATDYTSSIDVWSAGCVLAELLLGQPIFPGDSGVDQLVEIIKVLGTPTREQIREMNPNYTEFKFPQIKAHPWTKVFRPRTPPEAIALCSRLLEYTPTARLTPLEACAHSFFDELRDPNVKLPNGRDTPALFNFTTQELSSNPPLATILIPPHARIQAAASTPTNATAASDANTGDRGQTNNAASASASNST
Method: as §1

LCK = LCK (Homo sapiens (Human), UniProt P06239)
Sequence of LCK (P06239 whole entry, species assumed): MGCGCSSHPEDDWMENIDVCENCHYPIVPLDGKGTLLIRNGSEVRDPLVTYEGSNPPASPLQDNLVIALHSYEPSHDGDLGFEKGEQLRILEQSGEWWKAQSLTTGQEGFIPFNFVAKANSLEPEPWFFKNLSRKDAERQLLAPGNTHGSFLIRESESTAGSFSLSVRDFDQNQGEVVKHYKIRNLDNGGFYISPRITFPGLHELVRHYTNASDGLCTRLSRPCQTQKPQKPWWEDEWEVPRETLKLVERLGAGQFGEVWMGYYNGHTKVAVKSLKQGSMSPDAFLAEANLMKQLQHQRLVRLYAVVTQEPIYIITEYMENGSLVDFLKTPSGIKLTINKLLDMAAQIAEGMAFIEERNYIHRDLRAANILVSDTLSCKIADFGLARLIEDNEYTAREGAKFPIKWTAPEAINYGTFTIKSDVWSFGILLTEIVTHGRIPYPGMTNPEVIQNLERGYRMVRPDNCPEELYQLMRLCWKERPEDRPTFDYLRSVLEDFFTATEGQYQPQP
Method: as §1

HGK = HGK (Homo sapiens (Human), UniProt O95819)
Method: as §1

NEK2 = NEK2 (Homo sapiens (Human), UniProt P51955)
Method: as §1

CK1γ2 = CK1γ2 (Homo sapiens (Human), UniProt P78368)
Sequence of CK1γ2 (P78368 whole entry): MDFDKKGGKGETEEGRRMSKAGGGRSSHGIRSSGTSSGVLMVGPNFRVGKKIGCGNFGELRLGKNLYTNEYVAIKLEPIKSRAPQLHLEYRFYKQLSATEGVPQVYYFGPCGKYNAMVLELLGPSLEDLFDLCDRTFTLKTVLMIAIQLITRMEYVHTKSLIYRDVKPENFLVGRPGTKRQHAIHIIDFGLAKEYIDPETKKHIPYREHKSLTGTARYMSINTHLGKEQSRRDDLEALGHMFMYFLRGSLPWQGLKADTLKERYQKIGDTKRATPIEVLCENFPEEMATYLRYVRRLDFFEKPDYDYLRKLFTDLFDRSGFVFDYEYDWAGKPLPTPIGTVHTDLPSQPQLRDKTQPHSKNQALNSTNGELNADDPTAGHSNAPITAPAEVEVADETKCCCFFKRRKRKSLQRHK
Method: as §1

PAK2 = PAK2 (Homo sapiens (Human), UniProt Q13177)
Method: as §1

PLK2 = PLK2 (Homo sapiens (Human), UniProt Q9NYY3)
Method: as §1

IKKα = IKKα (Homo sapiens (Human), UniProt O15111)
Method: as §1

DDR1 = DDR1 (Homo sapiens (Human), UniProt Q08345); settings: for inhibition at 1 µM: 1 uM Compound C1, DDR1
Sequence of DDR1 (Q08345 19-913): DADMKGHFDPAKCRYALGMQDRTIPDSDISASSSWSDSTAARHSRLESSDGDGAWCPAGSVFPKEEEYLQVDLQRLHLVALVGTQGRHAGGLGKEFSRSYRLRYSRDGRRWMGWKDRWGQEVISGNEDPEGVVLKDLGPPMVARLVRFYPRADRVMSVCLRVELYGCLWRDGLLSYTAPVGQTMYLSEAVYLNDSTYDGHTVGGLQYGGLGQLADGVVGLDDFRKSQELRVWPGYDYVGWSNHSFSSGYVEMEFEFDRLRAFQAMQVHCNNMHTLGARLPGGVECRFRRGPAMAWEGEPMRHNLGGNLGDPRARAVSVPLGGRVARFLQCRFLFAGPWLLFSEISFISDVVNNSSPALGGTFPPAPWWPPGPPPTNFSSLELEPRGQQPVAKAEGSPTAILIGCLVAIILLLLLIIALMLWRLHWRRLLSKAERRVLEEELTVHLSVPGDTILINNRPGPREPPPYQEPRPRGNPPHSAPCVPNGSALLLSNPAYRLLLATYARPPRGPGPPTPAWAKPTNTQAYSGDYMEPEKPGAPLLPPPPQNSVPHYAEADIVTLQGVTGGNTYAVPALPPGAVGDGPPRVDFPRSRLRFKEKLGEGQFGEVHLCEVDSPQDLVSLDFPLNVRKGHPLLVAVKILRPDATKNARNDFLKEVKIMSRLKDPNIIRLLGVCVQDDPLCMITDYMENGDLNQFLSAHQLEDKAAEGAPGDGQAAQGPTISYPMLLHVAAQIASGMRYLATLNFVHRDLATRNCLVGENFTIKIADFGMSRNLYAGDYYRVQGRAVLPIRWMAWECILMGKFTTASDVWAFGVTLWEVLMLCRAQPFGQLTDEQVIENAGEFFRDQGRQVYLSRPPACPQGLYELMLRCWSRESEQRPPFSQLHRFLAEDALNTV
Method: as §1

PKACα = PKACα (Homo sapiens (Human), UniProt P17612)
Method: as §1

MAP2K1 = MAP2K1 (Homo sapiens (Human), UniProt Q02750)
Sequence of MAP2K1 (Q02750 whole entry, species assumed): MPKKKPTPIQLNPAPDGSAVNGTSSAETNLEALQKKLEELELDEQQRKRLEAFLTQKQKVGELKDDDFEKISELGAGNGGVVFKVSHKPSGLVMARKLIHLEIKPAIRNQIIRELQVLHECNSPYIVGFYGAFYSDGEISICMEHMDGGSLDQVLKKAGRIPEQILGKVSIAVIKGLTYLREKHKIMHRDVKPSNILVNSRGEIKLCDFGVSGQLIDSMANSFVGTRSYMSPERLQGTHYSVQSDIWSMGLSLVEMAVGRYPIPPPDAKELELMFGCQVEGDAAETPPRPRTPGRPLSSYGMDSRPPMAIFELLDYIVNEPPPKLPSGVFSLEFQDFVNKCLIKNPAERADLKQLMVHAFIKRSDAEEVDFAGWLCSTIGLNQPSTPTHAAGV
Method: as §1

CLK1 = CLK1 (Homo sapiens (Human), UniProt P49759)
Method: as §1

CDK1/CycE1 = CDK1/CycE1 (Homo sapiens (Human), UniProt P06493)
Sequence of CDK1/CycE1 (P06493 whole entry, species assumed): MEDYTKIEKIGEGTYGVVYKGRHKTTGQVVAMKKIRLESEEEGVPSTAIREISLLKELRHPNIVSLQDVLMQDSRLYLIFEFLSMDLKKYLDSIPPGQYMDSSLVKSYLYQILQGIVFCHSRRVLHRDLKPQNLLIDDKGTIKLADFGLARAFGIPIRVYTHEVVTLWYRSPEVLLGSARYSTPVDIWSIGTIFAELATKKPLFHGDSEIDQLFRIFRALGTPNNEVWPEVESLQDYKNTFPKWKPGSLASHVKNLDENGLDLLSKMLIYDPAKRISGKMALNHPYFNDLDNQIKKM
Sequence of CDK1/CycE1 (P24864 whole entry partner, species assumed): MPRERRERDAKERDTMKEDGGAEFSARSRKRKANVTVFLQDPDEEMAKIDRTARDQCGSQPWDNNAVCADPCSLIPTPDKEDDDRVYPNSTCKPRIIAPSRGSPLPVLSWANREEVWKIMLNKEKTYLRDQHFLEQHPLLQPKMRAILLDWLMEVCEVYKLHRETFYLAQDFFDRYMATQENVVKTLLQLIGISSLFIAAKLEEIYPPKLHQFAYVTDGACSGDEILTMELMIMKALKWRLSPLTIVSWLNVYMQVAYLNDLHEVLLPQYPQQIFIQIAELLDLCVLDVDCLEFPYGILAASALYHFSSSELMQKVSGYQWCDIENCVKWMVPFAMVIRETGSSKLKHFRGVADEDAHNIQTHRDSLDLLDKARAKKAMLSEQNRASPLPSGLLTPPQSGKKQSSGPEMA
Method: as §1

AurB = AurB (Homo sapiens (Human), UniProt Q96GD4)
Method: as §1

PKCα = PKCα (Homo sapiens (Human), UniProt P17252)
Method: as §1

DYRK1B = DYRK1B (Homo sapiens (Human), UniProt Q9Y463)
Method: as §1

PDGFRα = PDGFRα (Homo sapiens (Human), UniProt P16234)
Method: as §1

PIM1 = PIM1 (Homo sapiens (Human), UniProt P11309)
Sequence of PIM1 (P11309 whole entry, species assumed): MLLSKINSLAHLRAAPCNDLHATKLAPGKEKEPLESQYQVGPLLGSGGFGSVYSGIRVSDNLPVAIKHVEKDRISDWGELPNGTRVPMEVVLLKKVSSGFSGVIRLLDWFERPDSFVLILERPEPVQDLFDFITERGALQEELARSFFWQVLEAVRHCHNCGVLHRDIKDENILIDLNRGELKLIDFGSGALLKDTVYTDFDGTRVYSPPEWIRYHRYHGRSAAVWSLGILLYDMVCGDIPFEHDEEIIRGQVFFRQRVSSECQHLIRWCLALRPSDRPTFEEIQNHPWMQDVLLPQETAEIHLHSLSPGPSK
Method: as §1

ITK = ITK (Homo sapiens (Human), UniProt Q08881)
Sequence of ITK (Q08881 whole entry, species assumed): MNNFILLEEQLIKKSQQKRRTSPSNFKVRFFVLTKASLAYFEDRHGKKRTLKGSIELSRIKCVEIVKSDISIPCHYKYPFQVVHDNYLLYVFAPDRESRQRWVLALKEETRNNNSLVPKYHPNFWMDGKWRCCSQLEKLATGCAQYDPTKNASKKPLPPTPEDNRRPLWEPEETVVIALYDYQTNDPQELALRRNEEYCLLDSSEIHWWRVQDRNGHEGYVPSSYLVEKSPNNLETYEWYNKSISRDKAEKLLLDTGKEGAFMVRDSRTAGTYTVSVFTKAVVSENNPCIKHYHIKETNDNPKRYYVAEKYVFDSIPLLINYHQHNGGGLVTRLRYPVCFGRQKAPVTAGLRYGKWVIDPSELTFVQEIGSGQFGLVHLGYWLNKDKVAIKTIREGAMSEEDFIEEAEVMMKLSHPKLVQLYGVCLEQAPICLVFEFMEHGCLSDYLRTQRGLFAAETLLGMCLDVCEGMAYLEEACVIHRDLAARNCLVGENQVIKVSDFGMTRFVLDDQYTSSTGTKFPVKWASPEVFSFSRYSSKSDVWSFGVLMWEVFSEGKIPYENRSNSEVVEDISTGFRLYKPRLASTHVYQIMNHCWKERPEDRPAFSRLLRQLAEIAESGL
Method: as §1

ALK 4 = ALK 4 (Homo sapiens (Human), UniProt P36896)
Method: as §1

[1] = 1 uM Compound C1, read-out: % Inhibition (First measurement)
[2] = 1 uM Compound C1, read-out: % Inhibition (Second measurement)
[3] = 1 uM Compound C1, read-out: Average inhibition (%)

Sequence of CK2α1/β (P68400 whole entry): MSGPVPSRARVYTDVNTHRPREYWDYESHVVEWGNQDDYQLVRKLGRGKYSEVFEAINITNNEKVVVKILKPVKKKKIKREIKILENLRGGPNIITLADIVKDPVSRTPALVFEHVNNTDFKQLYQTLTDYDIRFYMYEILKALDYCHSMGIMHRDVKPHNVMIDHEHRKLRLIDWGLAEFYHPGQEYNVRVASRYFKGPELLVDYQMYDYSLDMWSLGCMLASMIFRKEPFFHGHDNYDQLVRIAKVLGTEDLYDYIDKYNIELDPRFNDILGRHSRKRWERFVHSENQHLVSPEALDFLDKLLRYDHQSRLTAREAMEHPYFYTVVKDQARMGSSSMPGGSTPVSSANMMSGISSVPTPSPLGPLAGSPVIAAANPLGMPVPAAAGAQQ
Sequence of CK2α1/β (P67870 whole entry partner): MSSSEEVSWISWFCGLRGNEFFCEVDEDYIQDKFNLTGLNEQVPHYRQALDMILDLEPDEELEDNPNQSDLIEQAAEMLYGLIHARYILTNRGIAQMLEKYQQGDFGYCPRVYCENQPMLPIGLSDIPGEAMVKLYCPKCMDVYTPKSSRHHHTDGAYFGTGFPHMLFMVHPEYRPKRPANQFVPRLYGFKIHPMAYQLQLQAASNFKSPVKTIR

Question: `Cc1ccc(C(=O)Nc2ccccn2)cc1C#Cc1cnc2cc(C3=CCCCC3)cnn12` [Compound C1, 3-{2-[7-(cyclohex-1-en-1-yl)imidazo[1,2-b]pyridazin-3-yl]ethynyl}-4-methyl-N-(pyridin-2-yl)benzamide] was tested. Which inhibition at 1 µM (CK2α1/β; [1]) did it give?
Answer: -5.19%

Question: And the inhibition at 1 µM (CK2α1/β; [2])?
Answer: 5.01%

Question: What about the inhibition at 1 µM (CK2α1/β; [3]) of the same compound?
Answer: -0.09%

Question: What about the inhibition at 1 µM (GSK3β; [1]) of the same compound?
Answer: 0.83%

Question: What about the inhibition at 1 µM (GSK3β; [2]) of the same compound?
Answer: 7.83%

Question: What about the inhibition at 1 µM (GSK3β; [3]) of the same compound?
Answer: 4.33%

Question: What about the inhibition at 1 µM (LCK; [1]) of the same compound?
Answer: 7.39%

Question: And the inhibition at 1 µM (LCK; [2])?
Answer: -6.87%

Question: And the inhibition at 1 µM (LCK; [3])?
Answer: 0.26%

Question: And the inhibition at 1 µM (HGK; [1])?
Answer: 18.5%

Question: What about the inhibition at 1 µM (HGK; [2]) of the same compound?
Answer: 17%

Question: And the inhibition at 1 µM (HGK; [3])?
Answer: 17.7%

Question: And the inhibition at 1 µM (NEK2; [1])?
Answer: 8.18%

Question: And the inhibition at 1 µM (NEK2; [2])?
Answer: 2.89%

Question: What about the inhibition at 1 µM (NEK2; [3]) of the same compound?
Answer: 5.54%

Question: And the inhibition at 1 µM (CK1γ2; [1])?
Answer: -6.26%

Question: What about the inhibition at 1 µM (CK1γ2; [2]) of the same compound?
Answer: -6.88%

Question: What about the inhibition at 1 µM (CK1γ2; [3]) of the same compound?
Answer: -6.57%

Question: What about the inhibition at 1 µM (PAK2; [1]) of the same compound?
Answer: 2.23%

Question: And the inhibition at 1 µM (PAK2; [2])?
Answer: 12.1%

Question: And the inhibition at 1 µM (PAK2; [3])?
Answer: 7.17%

Question: And the inhibition at 1 µM (PLK2; [1])?
Answer: 10.6%

Question: What about the inhibition at 1 µM (PLK2; [2]) of the same compound?
Answer: 2.02%

Question: And the inhibition at 1 µM (PLK2; [3])?
Answer: 6.33%

Question: And the inhibition at 1 µM (IKKα; [1])?
Answer: -18%

Question: What about the inhibition at 1 µM (IKKα; [2]) of the same compound?
Answer: -12.9%

Question: What about the inhibition at 1 µM (IKKα; [3]) of the same compound?
Answer: -15.5%

Question: And the inhibition at 1 µM (DDR1; read-out: % Inhibition (First measurement))?
Answer: 99.4%

Question: What about the inhibition at 1 µM (DDR1; read-out: % Inhibition (Second measurement)) of the same compound?
Answer: 99.1%

Question: What about the inhibition at 1 µM (DDR1; read-out: Average inhibition (%)) of the same compound?
Answer: 99.3%

Question: And the “Selectivity of DDR1 inhibition in the kinase inhibition profile (in words)” value (DDR1; kinase panel)?
Answer: can inhibit DDR1 with higher selectivity

Question: And the inhibition at 1 µM (PKACα; [1])?
Answer: -4.44%

Question: What about the inhibition at 1 µM (PKACα; [2]) of the same compound?
Answer: -1.87%

Question: What about the inhibition at 1 µM (PKACα; [3]) of the same compound?
Answer: -3.15%

Question: And the inhibition at 1 µM (MAP2K1; [1])?
Answer: -5.72%

Question: What about the inhibition at 1 µM (MAP2K1; [2]) of the same compound?
Answer: -3.53%

Question: And the inhibition at 1 µM (MAP2K1; [3])?
Answer: -4.62%

Question: And the inhibition at 1 µM (CLK1; [1])?
Answer: 2.98%

Question: What about the inhibition at 1 µM (CLK1; [2]) of the same compound?
Answer: 12.3%

Question: And the inhibition at 1 µM (CLK1; [3])?
Answer: 7.67%

Question: And the inhibition at 1 µM (CDK1/CycE1; [1])?
Answer: 11.9%

Question: What about the inhibition at 1 µM (CDK1/CycE1; [2]) of the same compound?
Answer: 20.1%

Question: And the inhibition at 1 µM (CDK1/CycE1; [3])?
Answer: 16%

Question: And the inhibition at 1 µM (AurB; [1])?
Answer: 19.7%

Question: What about the inhibition at 1 µM (AurB; [2]) of the same compound?
Answer: 13.3%

Question: What about the inhibition at 1 µM (AurB; [3]) of the same compound?
Answer: 16.5%

Question: And the inhibition at 1 µM (PKCα; [1])?
Answer: -1.67%

Question: What about the inhibition at 1 µM (PKCα; [2]) of the same compound?
Answer: -17.2%

Question: What about the inhibition at 1 µM (PKCα; [3]) of the same compound?
Answer: -9.44%

Question: And the inhibition at 1 µM (DYRK1B; [1])?
Answer: 4.14%

Question: What about the inhibition at 1 µM (DYRK1B; [2]) of the same compound?
Answer: 9.03%

Question: What about the inhibition at 1 µM (DYRK1B; [3]) of the same compound?
Answer: 6.58%

Question: And the inhibition at 1 µM (PDGFRα; [1])?
Answer: 84.1%

Question: And the inhibition at 1 µM (PDGFRα; [2])?
Answer: 84.8%

Question: And the inhibition at 1 µM (PDGFRα; [3])?
Answer: 84.4%

Question: And the inhibition at 1 µM (PIM1; [1])?
Answer: -3.17%

Question: And the inhibition at 1 µM (PIM1; [2])?
Answer: -4.27%

Question: And the inhibition at 1 µM (PIM1; [3])?
Answer: -3.72%

Question: What about the inhibition at 1 µM (ITK; [1]) of the same compound?
Answer: -3.82%

Question: What about the inhibition at 1 µM (ITK; [2]) of the same compound?
Answer: -19.2%

Question: What about the inhibition at 1 µM (ITK; [3]) of the same compound?
Answer: -11.5%

Question: What about the inhibition at 1 µM (ALK 4; [1]) of the same compound?
Answer: -6.24%

Question: And the inhibition at 1 µM (ALK 4; [2])?
Answer: 14.8%

Question: What about the inhibition at 1 µM (ALK 4; [3]) of the same compound?
Answer: 4.25%
